Results from patent US20080306131A1, “Progesterone receptor modulator and uses thereof” (Wyeth, priority 2007, published 2008).
Like-named read-outs stand apart in the source and are kept apart here.

Target: T1, progesterone receptors (PR) (Homo sapiens, UniProt P06401)
T1 sequence (P06401 1-933): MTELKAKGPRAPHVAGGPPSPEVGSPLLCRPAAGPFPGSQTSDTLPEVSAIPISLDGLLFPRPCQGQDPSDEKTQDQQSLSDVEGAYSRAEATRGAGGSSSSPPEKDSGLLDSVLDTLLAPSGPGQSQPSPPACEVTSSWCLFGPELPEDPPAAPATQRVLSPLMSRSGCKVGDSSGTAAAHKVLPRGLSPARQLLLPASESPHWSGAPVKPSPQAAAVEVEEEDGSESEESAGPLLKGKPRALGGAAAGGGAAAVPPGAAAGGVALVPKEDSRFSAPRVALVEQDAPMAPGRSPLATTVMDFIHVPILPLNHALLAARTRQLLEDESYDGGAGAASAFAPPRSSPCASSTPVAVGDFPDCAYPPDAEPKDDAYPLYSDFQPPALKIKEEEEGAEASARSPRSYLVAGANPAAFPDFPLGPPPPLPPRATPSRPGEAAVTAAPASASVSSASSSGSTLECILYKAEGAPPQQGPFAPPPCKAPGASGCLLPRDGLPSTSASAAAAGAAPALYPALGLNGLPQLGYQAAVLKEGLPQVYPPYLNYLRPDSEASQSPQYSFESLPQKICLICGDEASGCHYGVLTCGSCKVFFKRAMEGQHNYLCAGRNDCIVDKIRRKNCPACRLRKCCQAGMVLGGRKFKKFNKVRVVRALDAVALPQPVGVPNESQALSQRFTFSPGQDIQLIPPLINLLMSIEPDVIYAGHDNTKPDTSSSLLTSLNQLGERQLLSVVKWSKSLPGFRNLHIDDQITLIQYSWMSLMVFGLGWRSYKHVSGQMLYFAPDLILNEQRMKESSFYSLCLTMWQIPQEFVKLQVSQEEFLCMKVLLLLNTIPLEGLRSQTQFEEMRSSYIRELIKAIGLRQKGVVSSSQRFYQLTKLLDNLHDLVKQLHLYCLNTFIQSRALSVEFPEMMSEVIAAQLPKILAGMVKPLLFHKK
Assay: PRE luciferase reporter assay and Quantigene branched DNA assay (TF, PPL) for progestin activity in T47D cells
Format: cell-based
Conditions: read-out: efficacies (percentage of the maximum P4 response)
Method: Progestin activity was measured using a common luciferase reporter system in cells expressing endogenous progesterone receptors (PR). T47D breast cancer cells were plated at 50,000 cells/well in 96 well plates in DMEM/F-12 supplemented with penicillin/streptomycin, Glutamax and 5% FBS (Gibco). Cells were infected with a 1:1000 dilution of an adenovirus vector expressing luciferase under the control of three copies of a consensus progesterone receptor regulatory element (PRE) located in the promoter region. Following a two-hour post-infection recovery, cells were treated for 20 hours with progesterone (P4) or test compounds. Luciferase reporter activity was quantified using the Luciferase Assay System (Promega) and a Victor2 luminometer (Perkin Elmer).
T47D cells were plated as in the PRE assay and treated with compound for 15 hours. Expression of tissue factor (TF), a PR-β isoform regulated gene, or periplakin (PPL), a PR-A regulated gene, was measured by the Quantigene branched DNA assay (Genospectra) using the Victor2 luminometer following the manufacturer's recommended protocol.
EC50 values were determined using the dose response nonlinear fit model from the SAS statistics package (SAS Institute Inc). Efficacies were calculated as a percentage of the maximum P4 response.

Row | Emax (T47D breast cancer cells, percentage of maximum progesterone (P4) response, the text does not say which assay (PRE luciferase, TF, PPL) each value comes from) [%] | SMILES | Emax (T47D) [%]
1 | < 1 | CO[C@H]1[C@H](O)[C@@H](O)[C@@H](Oc2ccc3c4c([nH]c3c2)[C@]2(C)[C@H](CC[C@@H]3C(C)(C)C(=O)C=C[C@]32C)C4)O[C@@H]1CO [(4aS,6aR,12bR,12cR)-4,4,12b,12c-tetramethyl-3-oxo-3,4,4a,5,6,6a,7,12,12b,12c-decahydrobenzo[6,7]indeno[1,2-b]indol-10-yl 4-O-methyl-α-D-glucopyranoside] | –
2 | – | CC1(C)C(=O)C=CC2(C)C3(C)c4[nH]c5ccccc5c4CC3CCC12O (centres unmarked) [4a-hydroxy-4,4,12b,12c-tetramethyl-4a,5,6,6a,7,12,12b,12c-octahydrobenzo[6,7]indeno[1,2-b]indol-3(4H)-one] | < 1
